Test results from US10543183B2, “Treatment and diagnosis of melanoma” (The Rockefeller University, priority 2012, dated 2020).
Structures can show the parent of a compound that is named as a salt.

Legend:
[1] = tested on: ApoE expression in systemic tissues; experiment: systemic ApoE expression in mouse tissues (western blot, qRT-PCR); type: in vivo; conditions: 10 days; for ApoE protein expression in systemic adipose, lung, and brain tissues: chow 20 mg/kg; for ApoE transcript levels in circulating white blood cells: diet 20 mg/kg
Experimental: Mouse lung and brain tissue samples were homogenized on ice in RIPA buffer (Sigma-Aldrich) supplemented with protease inhibitors (Roche). Mouse adipose tissue was homogenized on ice in TNET buffer (1.5 mM Tris pH 7.5, 150 mM NaCl, 2 mM EDTA 1% triton, protease inhibitors). Total protein lysate (2 μg) was separated by SDS-PAGE, transferred to PVDF membrane, and blotted with an anti-mouse ApoE (ab20874, Abcam) and anti-tubulin α/β (2148, Cell Signaling) antibodies. RNA was extracted from whole cell lysates using the Total RNA Purification Kit (17200, Norgen, Thorold, Canada). 600 ng of total RNA was then reverse transcribed into cDNA using the cDNA First-Strand Synthesis Kit (18080-051, Invitrogen), and quantitative real-time PCR amplification was performed as previously described (Pencheva et al., 2012) using an ABI Prism 7900HT Real-Time PCR System (Applied Biosystems, Austin, Tex.). Each PCR reaction was carried out in quadruplicates. Gene expression was normalized to GAPDH, which was used as an endogenous control.

[2] = tested on: ApoE promoter fused to ME.1 or ME.2 in MeWo cells; experiment: ApoE promoter activity assay (luciferase reporter); type: cell-based, human; conditions: 1 μM, 24 hours
Source text: The ApoE promoter, consisting of a sequence spanning 980 base pairs upstream and 93 base pairs downstream of the ApoE gene, was cloned into a pGL3-Basic vector (E1751, Promega Corporation, Madison, Wis.) upstream of the firefly luciferase gene using NheI and SacI restriction enzymes. Then, multi-enhancer elements 1 (ME.1) and 2 (ME.2) were cloned directly upstream of the ApoE promoter using MluI and […] restriction enzymes. To assess ApoE promoter- and ME.1/ME.2-driven transcriptional activation by LXR agonists, 5×10^4 MeWo cells were seeded into a 24-well plate. The following day, 100 ng of pGL3-ME.1/ME.2-ApoE promoter construct and 2 ng of pRL-CMV renilla luciferase construct (E2261, Promega) were co-transfected into cells in the presence of DMSO, GW3965, or T0901317 at 1 μM, each condition in quadruplicate. To assess transcriptional activation by LXRα or LXRβ, 5×10^4 MeWo cells expressing a control shRNA or shRNA targeting LXRα or LXRβ were seeded into a 24-well plate. […] After 24 hours, cells were lysed, and cell lysate was analyzed for firefly and renilla luciferase activity using the Dual Luciferase Assay System (E1960, Promega) and a Bio-Tek Synergy NEO Microplate Reader. Firefly luciferase signal was normalized to renilla luciferase signal and all data are expressed relative to the luciferase activity ratio measured in the DMSO-treated control cells.

[3] = tested on: extracellular ApoE protein from melanoma cells; experiment: ApoE ELISA in conditioned media; type: cell-based, human; conditions: MeWo cells, 1 μM, 72 hours
Experimental: Extracellular ApoE levels in serum-free conditioned media from melanoma cells treated with DMSO, GW3965, or T0901317 (1 μM each) were quantified using the ApoE ELISA kit (Innovative Research) at 72 hours following treatment.

[4] = tested on: breast, renal, pancreatic and lung cancer cell lines; experiment: trans-well matrigel invasion assay, other cancer types; type: cell-based, human
Experimental: The ability of cancer cells to invade through matrigel in vitro was tested by using a trans-cell matrigel invasion chamber system (354480, BD Biosciences). Various cancer cell lines were serum-starved overnight in media containing 0.2% FBS. The following day, invasion chambers were pre-equilibrated prior to the assay by adding 0.5 mL of starvation media to the top and bottom wells. Meanwhile, cancer cells were trypsinized and viable cells were counted using the trypan blue dead cell exclusion dye. Cancer cells were then resuspended at a concentration of 1×10^5 cells/1 mL starvation media, and 0.5 mL of cell suspension, containing 5×10^4 cells, was seeded into each trans-well. […] The basal side of each insert was imaged using an inverted fluorescence microscope (Zeiss Axiovert 40 CFL) at 5× magnification, and the number of DAPI-positive cells was quantified using ImageJ.
The cells were serum starved for 16 hours in 0.2% FBS media in the presence of DMSO or GW3965. […] Meanwhile, cancer cells were trypsinized and viable cells were counted using trypan blue. […] The basal side of each insert was imaged using an inverted fluorescence microscope (Zeiss Axiovert 40 CFL) at 5× magnification, and the number of DAPI-positive cells was quantified using ImageJ.

[5] = tested on: B16F10 mouse melanoma cells; experiment: subcutaneous B16F10 tumor growth in mice; type: in vivo; conditions: for primary tumor growth in vivo (FIG. 21): mouse; for suppression of tumor growth by B16F10 cells: 20 mg/kg, tumors 5-10 mm3 at start, immunocompetent mice

Molecule	ApoE protein expression in systemic adipose, lung, and brain tissues [1]	ApoE transcript levels in circulating white blood cells [1]	activity of luciferase reporter containing the ApoE promoter fused to ME.1 or ME.2 [2]	levels of secreted ApoE protein [3]	tumor cell invasion of renal, pancreatic and lung cancer cells ([4]; RCC, PANC1, H460 cells, 1 μM for 72 hours)	suppression of tumor growth in mice genetically inactivated for ApoE ([5]; ApoE−/− mice, diet 20 mg/kg)	tumor growth inhibition upon LXRα inactivation ([5]; LXRα−/− mice, diet 20 mg/kg)	ability to suppress melanoma tumor growth upon genetic ablation of systemic LXRβ ([5]; LXRβ−/− mice, diet 20 mg/kg)	primary tumor growth in vivo (FIG. 21) [5]	suppression of tumor growth by B16F10 cells ([5]; oral) [%]	reduction in tumor growth by B16F10 cells ([5]; oral, 100 mg/kg) [%]	reduction in growth of established large B16F10 tumors ([5]; tumors ~150 mm3 at start, chow 150 mg/kg)	tumor cell invasion across breast, renal cell and pancreatic cancer ([4]; 100 μg/mL at start of assay)
O=C(O)Cc1cccc(OCCCN(Cc2cccc(C(F)(F)F)c2Cl)CC(c2ccccc2)c2ccccc2)c1 [GW3965 2, 3-[3-[N-(2-Chloro-3-trifluoromethylbenzyl)-(2,2-diphenylethyl)amino]propyloxy] phenylacetic acid hydrochloride]	significantly elevated	upregulated	enhance	elevated levels	inhibition	completely ineffective	had no effect	blocked	inhibit	67	80	roughly 50%	
O=S(=O)(c1ccccc1)N(CC(F)(F)F)c1ccc(C(O)(C(F)(F)F)C(F)(F)F)cc1 [T0901317 1]	significantly elevated	upregulated	enhance	elevated levels					inhibit	61			
recombinant ApoE3: recombinant human ApoE3 (4696, BioVision)													inhibited
